Measured values from patent US6864283B2, “Oxy-and amino-substituted tetrahydrofuryl derivatives with antitumour activity” (Pharma Mar, S.A., priority 2000, dated 2005).

Assays:
Format in all cases: cell-based
[1] = tested on: P388 leukemia; test: IC50 against P388 leukemia cells; details: Mus musculus
[2] = tested on: A459 human lung; test: IC50 against A459 human lung cells
[3] = tested on: HT29 human colon; test: IC50 against HT29 human colon cells; details: HT-29
[4] = tested on: MEL28 melanoma; test: IC50 against MEL28 melanoma cells; details: Homo sapiens, SK-MEL-28

Measured: IC50

CCCCCCCCCCCCCC[C@@H]1OC[C@H](N)[C@@H]1O [IK-8-73-4]
0.01 µg/mL: all assays above
